Laboratory results taken from publication PMC5392334, “Discovery and characterization of a novel irreversible EGFR mutants selective and potent kinase inhibitor CHMFL-EGFR-26 with a distinct binding mode” (Oncotarget, 2017).

Tests used:
QSK = molecular target: T1, QSK (Homo sapiens, UniProt Q9Y2K2); experiment: KinomeScan; format: binding; conditions: read-out: % control
T1 construct: purchased DiscoveRx KINOMEscan

MELK = molecular target: T2, MELK (Homo sapiens, UniProt Q14680); experiment: KinomeScan; format: binding; conditions: read-out: % control
T2 construct: purchased DiscoveRx KINOMEscan

BMPR1B = molecular target: T3, BMPR1B (Homo sapiens, UniProt O00238); experiment: KinomeScan; format: binding; conditions: read-out: % control
T3 construct: purchased DiscoveRx KINOMEscan

BaF3-TEL-EGFR-T790M = experiment: Anti-proliferation, BaF3 isogenic cell lines (CellTiter-Glo); format: cell-based; conditions: Mus musculus, 72 hours, triplet testing
EPHA2 = molecular target: T4, EPHA2 (Homo sapiens, UniProt P29317); experiment: KinomeScan; format: binding; conditions: read-out: % control
T4 construct: purchased DiscoveRx KINOMEscan

MAP3K2 = molecular target: T5, MAP3K2 (Homo sapiens, UniProt Q9Y2U5); experiment: KinomeScan; format: binding; conditions: read-out: % control
T5 construct: purchased DiscoveRx KINOMEscan

PAK4 = molecular target: T6, PAK4 (Homo sapiens, UniProt O96013); experiment: KinomeScan; format: binding; conditions: read-out: % control
T6 construct: purchased DiscoveRx KINOMEscan

EGFR(G719S) = molecular target: T7, EGFR(G719S) (Homo sapiens, UniProt P00533, G719S); experiment: KinomeScan; format: binding; conditions: read-out: % control
T7 construct: purchased DiscoveRx KINOMEscan

[1] = molecular target: T8, RSK1(Kin.Dom.1-N-terminal) (Homo sapiens, UniProt Q15418); experiment: KinomeScan; format: binding; conditions: read-out: % control
T8 construct: RSK1(Kin.Dom.1-N-terminal); purchased DiscoveRx KINOMEscan

PRKCQ = molecular target: T9, PRKCQ (Homo sapiens, UniProt Q04759); experiment: KinomeScan; format: binding; conditions: read-out: % control
T9 construct: purchased DiscoveRx KINOMEscan

NEK10 = molecular target: T10, NEK10 (Homo sapiens, UniProt Q6ZWH5); experiment: KinomeScan; format: binding; conditions: read-out: % control
T10 construct: purchased DiscoveRx KINOMEscan

KIT(V559D,T670I) = molecular target: T11, KIT(V559D,T670I) (Homo sapiens, UniProt P10721, T670I/V559D); experiment: KinomeScan; format: binding; conditions: read-out: % control
T11 construct: purchased DiscoveRx KINOMEscan

[2] = molecular target: RPS6KA5(Kin.Dom.2-C-terminal) (Homo sapiens, UniProt O75582); experiment: KinomeScan; format: binding; conditions: read-out: % control
JNK1 = molecular target: T12, JNK1 (Homo sapiens, UniProt P45983); experiment: KinomeScan; format: binding; conditions: read-out: % control
T12 construct: purchased DiscoveRx KINOMEscan

TXK = molecular target: T13, TXK (Homo sapiens, UniProt P42681); experiment: KinomeScan; format: binding; conditions: read-out: % control
T13 construct: purchased DiscoveRx KINOMEscan

CSNK1D = molecular target: T14, CSNK1D (Homo sapiens, UniProt P48730); experiment: KinomeScan; format: binding; conditions: read-out: % control
T14 construct: purchased DiscoveRx KINOMEscan

PIK3CA(I800L) = molecular target: T15, PIK3CA(I800L) (Homo sapiens, UniProt P42336, I800L); experiment: KinomeScan; format: binding; conditions: read-out: % control
T15 construct: purchased DiscoveRx KINOMEscan

MARK2 = molecular target: T16, MARK2 (Homo sapiens, UniProt Q7KZI7); experiment: KinomeScan; format: binding; conditions: read-out: % control
T16 construct: purchased DiscoveRx KINOMEscan

PHKG2 = molecular target: T17, PHKG2 (Homo sapiens, UniProt P15735); experiment: KinomeScan; format: binding; conditions: read-out: % control
T17 construct: purchased DiscoveRx KINOMEscan

DYRK2 = molecular target: T18, DYRK2 (Homo sapiens, UniProt Q92630); experiment: KinomeScan; format: binding; conditions: read-out: % control
T18 construct: purchased DiscoveRx KINOMEscan

KIT(V559D) = molecular target: T19, KIT(V559D) (Homo sapiens, UniProt P10721, V559D); experiment: KinomeScan; format: binding; conditions: read-out: % control
T19 construct: purchased DiscoveRx KINOMEscan

MAP4K4 = molecular target: T20, MAP4K4 (Homo sapiens, UniProt O95819); experiment: KinomeScan; format: binding; conditions: read-out: % control
T20 construct: purchased DiscoveRx KINOMEscan

ERK2 = molecular target: T21, ERK2 (Homo sapiens, UniProt P28482); experiment: KinomeScan; format: binding; conditions: read-out: % control
T21 construct: purchased DiscoveRx KINOMEscan

JNK2 = molecular target: T22, JNK2 (Homo sapiens, UniProt P45984); experiment: KinomeScan; format: binding; conditions: read-out: % control
T22 construct: purchased DiscoveRx KINOMEscan

KIT(A829P) = molecular target: T23, KIT(A829P) (Homo sapiens, UniProt P10721, A829P); experiment: KinomeScan; format: binding; conditions: read-out: % control
T23 construct: purchased DiscoveRx KINOMEscan

PRKD3 = molecular target: T24, PRKD3 (Homo sapiens, UniProt O94806); experiment: KinomeScan; format: binding; conditions: read-out: % control
T24 construct: purchased DiscoveRx KINOMEscan

PRKCE = molecular target: T25, PRKCE (Homo sapiens, UniProt Q02156); experiment: KinomeScan; format: binding; conditions: read-out: % control
T25 construct: purchased DiscoveRx KINOMEscan

PKN2 = molecular target: T26, PKN2 (Homo sapiens, UniProt Q16513); experiment: KinomeScan; format: binding; conditions: read-out: % control
T26 construct: purchased DiscoveRx KINOMEscan

DCAMKL2 = molecular target: T27, DCAMKL2 (Homo sapiens, UniProt Q8N568); experiment: KinomeScan; format: binding; conditions: read-out: % control
T27 construct: purchased DiscoveRx KINOMEscan

HASPIN = molecular target: T28, HASPIN (Homo sapiens, UniProt Q8TF76); experiment: KinomeScan; format: binding; conditions: read-out: % control
T28 construct: purchased DiscoveRx KINOMEscan

ITK = molecular target: T29, ITK (Homo sapiens, UniProt Q08881); experiment: KinomeScan; format: binding; conditions: read-out: % control
T29 construct: purchased DiscoveRx KINOMEscan

LATS2 = molecular target: T30, LATS2 (Homo sapiens, UniProt Q9NRM7); experiment: KinomeScan; format: binding; conditions: read-out: % control
T30 construct: purchased DiscoveRx KINOMEscan

CDK3 = molecular target: T31, CDK3 (Homo sapiens, UniProt Q00526); experiment: KinomeScan; format: binding; conditions: read-out: % control
T31 construct: purchased DiscoveRx KINOMEscan

ICK = molecular target: T32, ICK (Homo sapiens, UniProt Q9UPZ9); experiment: KinomeScan; format: binding; conditions: read-out: % control
T32 construct: purchased DiscoveRx KINOMEscan

NDR1 = molecular target: T33, NDR1 (Homo sapiens, UniProt Q15208); experiment: KinomeScan; format: binding; conditions: read-out: % control
T33 construct: purchased DiscoveRx KINOMEscan

[3] = molecular target: T34, RSK2(Kin.Dom.2-C-terminal) (Homo sapiens, UniProt P51812); experiment: KinomeScan; format: binding; conditions: read-out: % control
T34 construct: RSK2(Kin.Dom.2-C-terminal); purchased DiscoveRx KINOMEscan

RET(V804L) = molecular target: T35, RET(V804L) (Homo sapiens, UniProt P07949, V804L); experiment: KinomeScan; format: binding; conditions: read-out: % control
T35 construct: purchased DiscoveRx KINOMEscan

DLK = molecular target: T36, DLK (Homo sapiens, UniProt Q12852); experiment: KinomeScan; format: binding; conditions: read-out: % control
T36 construct: purchased DiscoveRx KINOMEscan

MLK3 = molecular target: T37, MLK3 (Homo sapiens, UniProt Q16584); experiment: KinomeScan; format: binding; conditions: read-out: % control
T37 construct: purchased DiscoveRx KINOMEscan

MAST1 = molecular target: T38, MAST1 (Homo sapiens, UniProt Q9Y2H9); experiment: KinomeScan; format: binding; conditions: read-out: % control
T38 construct: purchased DiscoveRx KINOMEscan

YANK2 = molecular target: T39, YANK2 (Homo sapiens, UniProt Q9NY57); experiment: KinomeScan; format: binding; conditions: read-out: % control
T39 construct: purchased DiscoveRx KINOMEscan

FGFR4 = molecular target: T40, FGFR4 (Homo sapiens, UniProt P22455); experiment: KinomeScan; format: binding; conditions: read-out: % control
T40 construct: purchased DiscoveRx KINOMEscan

T3 sequence (O00238 14-502): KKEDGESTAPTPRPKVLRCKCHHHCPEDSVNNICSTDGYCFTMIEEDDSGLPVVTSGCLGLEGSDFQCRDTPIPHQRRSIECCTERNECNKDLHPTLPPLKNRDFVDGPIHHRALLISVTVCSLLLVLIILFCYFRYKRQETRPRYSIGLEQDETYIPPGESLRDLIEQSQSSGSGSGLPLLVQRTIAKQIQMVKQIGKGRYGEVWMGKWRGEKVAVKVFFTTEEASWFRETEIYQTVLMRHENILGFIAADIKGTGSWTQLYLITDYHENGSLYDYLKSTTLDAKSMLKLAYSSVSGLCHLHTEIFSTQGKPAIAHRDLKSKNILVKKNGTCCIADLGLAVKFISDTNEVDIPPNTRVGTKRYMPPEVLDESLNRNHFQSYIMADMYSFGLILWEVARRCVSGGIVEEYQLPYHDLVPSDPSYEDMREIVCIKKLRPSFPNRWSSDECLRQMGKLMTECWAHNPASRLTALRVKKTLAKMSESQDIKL
T20 sequence (O95819 whole entry): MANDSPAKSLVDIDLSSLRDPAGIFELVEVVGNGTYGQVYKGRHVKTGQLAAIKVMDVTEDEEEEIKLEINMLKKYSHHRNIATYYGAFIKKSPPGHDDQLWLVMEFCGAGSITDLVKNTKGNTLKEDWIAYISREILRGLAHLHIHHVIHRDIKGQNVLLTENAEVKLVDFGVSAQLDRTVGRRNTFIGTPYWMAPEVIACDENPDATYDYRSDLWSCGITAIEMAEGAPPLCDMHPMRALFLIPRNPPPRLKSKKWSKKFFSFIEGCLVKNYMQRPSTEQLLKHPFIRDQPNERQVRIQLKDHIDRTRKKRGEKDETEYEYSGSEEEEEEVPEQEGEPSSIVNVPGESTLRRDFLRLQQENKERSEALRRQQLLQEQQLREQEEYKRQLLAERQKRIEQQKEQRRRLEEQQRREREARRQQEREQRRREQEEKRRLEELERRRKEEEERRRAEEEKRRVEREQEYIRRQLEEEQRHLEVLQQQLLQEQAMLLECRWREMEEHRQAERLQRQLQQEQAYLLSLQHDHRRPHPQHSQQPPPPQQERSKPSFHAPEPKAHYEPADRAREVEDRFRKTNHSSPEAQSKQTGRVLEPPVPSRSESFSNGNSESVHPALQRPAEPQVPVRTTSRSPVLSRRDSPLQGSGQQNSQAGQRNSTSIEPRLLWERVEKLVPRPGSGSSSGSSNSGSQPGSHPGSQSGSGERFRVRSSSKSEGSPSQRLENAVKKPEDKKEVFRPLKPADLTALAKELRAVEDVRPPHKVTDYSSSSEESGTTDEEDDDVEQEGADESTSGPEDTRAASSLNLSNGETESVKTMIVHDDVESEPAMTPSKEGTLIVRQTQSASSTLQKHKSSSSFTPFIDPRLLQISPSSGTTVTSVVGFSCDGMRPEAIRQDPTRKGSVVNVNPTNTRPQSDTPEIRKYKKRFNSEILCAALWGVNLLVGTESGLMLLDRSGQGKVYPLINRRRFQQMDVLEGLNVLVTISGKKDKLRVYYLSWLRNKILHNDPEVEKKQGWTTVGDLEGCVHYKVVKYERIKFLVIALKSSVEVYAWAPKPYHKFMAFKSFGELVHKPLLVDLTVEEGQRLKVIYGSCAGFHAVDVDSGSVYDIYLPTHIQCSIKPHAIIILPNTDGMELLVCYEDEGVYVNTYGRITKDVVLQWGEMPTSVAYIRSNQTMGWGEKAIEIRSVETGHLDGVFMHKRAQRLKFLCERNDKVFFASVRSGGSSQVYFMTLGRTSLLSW
T27 sequence (Q8N568 whole entry): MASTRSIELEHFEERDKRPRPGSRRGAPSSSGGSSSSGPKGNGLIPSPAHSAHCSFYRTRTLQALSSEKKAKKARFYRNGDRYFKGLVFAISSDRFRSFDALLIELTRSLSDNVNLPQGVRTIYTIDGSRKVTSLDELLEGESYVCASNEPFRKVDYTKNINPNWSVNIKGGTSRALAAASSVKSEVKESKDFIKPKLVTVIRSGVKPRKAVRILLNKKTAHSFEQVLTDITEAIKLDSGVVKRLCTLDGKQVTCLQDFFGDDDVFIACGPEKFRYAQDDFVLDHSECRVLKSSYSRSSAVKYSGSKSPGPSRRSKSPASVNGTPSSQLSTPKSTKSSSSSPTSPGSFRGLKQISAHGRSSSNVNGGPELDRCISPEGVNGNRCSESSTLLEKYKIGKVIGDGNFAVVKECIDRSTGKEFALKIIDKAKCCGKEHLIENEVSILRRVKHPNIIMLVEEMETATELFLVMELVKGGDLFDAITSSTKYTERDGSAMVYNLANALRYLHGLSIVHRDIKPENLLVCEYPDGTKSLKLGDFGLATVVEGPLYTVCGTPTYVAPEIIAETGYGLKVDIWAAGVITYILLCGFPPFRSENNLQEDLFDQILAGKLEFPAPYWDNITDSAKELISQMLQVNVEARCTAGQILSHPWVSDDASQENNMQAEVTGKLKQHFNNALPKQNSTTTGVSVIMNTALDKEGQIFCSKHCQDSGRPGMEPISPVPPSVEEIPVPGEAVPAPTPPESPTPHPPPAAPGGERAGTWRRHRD
T2 sequence (Q14680 whole entry): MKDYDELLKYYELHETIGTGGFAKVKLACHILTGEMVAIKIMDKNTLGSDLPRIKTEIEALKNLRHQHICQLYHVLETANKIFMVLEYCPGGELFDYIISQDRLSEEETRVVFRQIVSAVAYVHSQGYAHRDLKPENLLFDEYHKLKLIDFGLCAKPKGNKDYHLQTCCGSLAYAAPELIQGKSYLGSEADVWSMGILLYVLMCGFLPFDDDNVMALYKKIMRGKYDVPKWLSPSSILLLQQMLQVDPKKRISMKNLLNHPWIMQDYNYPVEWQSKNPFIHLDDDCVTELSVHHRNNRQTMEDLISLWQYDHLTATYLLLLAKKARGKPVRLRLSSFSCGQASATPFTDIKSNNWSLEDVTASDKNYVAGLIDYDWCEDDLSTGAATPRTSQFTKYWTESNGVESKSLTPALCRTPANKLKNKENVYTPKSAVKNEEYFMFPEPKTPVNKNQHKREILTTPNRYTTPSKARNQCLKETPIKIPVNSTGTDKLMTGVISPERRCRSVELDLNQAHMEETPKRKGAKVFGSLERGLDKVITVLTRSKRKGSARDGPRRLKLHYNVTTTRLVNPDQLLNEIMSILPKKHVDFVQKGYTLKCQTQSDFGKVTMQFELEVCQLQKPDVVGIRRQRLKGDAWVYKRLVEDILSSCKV
T6 sequence (O96013 whole entry): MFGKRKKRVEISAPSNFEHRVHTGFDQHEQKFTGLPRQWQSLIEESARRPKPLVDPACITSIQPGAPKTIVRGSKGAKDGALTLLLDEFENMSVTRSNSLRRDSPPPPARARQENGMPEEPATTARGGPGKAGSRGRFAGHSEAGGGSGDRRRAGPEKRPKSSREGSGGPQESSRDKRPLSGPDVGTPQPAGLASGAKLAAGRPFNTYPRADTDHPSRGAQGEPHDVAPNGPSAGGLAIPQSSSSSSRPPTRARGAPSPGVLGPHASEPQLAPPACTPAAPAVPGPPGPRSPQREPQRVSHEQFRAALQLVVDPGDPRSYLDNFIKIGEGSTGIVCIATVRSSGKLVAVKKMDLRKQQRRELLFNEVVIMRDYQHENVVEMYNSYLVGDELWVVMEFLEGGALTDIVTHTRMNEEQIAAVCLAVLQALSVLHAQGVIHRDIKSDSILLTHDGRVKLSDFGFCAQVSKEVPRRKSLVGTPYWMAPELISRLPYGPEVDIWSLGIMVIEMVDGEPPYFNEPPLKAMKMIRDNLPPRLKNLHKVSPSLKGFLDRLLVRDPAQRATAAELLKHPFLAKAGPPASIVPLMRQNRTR
T31 sequence (Q00526 whole entry): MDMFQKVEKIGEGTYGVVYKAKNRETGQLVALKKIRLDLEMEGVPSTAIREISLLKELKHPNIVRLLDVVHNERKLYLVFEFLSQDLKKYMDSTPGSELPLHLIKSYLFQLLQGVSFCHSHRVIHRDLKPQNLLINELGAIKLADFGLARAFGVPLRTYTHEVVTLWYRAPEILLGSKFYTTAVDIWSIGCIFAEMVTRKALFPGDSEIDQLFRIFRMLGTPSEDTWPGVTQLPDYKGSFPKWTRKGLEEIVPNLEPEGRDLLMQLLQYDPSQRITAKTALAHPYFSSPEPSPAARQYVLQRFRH
T39 sequence (Q9NY57 whole entry): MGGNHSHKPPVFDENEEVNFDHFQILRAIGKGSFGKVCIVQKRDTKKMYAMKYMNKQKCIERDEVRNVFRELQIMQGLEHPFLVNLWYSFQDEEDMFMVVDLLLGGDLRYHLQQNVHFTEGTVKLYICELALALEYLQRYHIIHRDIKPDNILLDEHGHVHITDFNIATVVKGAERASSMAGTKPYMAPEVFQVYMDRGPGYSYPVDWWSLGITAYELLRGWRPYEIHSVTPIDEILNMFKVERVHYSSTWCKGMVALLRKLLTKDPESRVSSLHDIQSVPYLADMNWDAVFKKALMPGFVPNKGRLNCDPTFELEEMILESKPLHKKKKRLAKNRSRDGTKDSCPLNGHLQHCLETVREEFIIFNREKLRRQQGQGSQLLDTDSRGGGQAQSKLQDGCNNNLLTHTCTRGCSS
Sequence of RPS6KA5(Kin.Dom.2-C-terminal) (O75582 388-802 limits assumed): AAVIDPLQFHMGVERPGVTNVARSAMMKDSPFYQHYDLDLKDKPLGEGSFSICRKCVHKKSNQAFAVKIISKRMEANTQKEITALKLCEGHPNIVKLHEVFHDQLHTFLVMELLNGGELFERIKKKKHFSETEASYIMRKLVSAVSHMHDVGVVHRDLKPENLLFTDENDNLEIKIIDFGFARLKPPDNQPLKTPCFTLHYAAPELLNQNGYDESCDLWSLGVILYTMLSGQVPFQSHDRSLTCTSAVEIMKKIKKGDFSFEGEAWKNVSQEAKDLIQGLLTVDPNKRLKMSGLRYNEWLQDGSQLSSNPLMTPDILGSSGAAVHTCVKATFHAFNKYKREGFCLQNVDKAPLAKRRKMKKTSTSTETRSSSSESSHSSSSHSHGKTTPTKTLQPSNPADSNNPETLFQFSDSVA

C=CC(=O)N1CCC[C@@H](n2nc(-c3ccc(OCc4cccc(C)n4)c(Cl)c3)c3c(N)ncnc32)C1 [CHMFL-EGFR-26]
remaining binding at 1 µM (QSK): 71%
remaining binding at 1 µM (MELK): 41%
remaining binding at 1 µM (BMPR1B): 97%
GI50 (BaF3-TEL-EGFR-T790M): < 0.3 nM
remaining binding at 1 µM (EPHA2): 100%
remaining binding at 1 µM (MAP3K2): 52%
remaining binding at 1 µM (PAK4): 94%
remaining binding at 1 µM (EGFR(G719S)): 18%
remaining binding at 1 µM [1]: 97%
remaining binding at 1 µM (PRKCQ): 57%
remaining binding at 1 µM (NEK10): 99%
remaining binding at 1 µM (KIT(V559D,T670I)): 100%
remaining binding at 1 µM [2]: 100%
remaining binding at 1 µM (JNK1): 76%
remaining binding at 1 µM (TXK): 15%
remaining binding at 1 µM (CSNK1D): 95%
remaining binding at 1 µM (PIK3CA(I800L)): 100%
remaining binding at 1 µM (MARK2): 95%
remaining binding at 1 µM (PHKG2): 100%
remaining binding at 1 µM (DYRK2): 86%
remaining binding at 1 µM (KIT(V559D)): 100%
remaining binding at 1 µM (MAP4K4): 46%
remaining binding at 1 µM (ERK2): 94%
remaining binding at 1 µM (JNK2): 59%
remaining binding at 1 µM (KIT(A829P)): 100%
remaining binding at 1 µM (PRKD3): 92%
remaining binding at 1 µM (PRKCE): 99%
remaining binding at 1 µM (PKN2): 53%
remaining binding at 1 µM (DCAMKL2): 95%
remaining binding at 1 µM (HASPIN): 100%
remaining binding at 1 µM (ITK): 96%
remaining binding at 1 µM (LATS2): 96%
remaining binding at 1 µM (CDK3): 84%
remaining binding at 1 µM (ICK): 90%
remaining binding at 1 µM (NDR1): 71%
remaining binding at 1 µM [3]: 100%
remaining binding at 1 µM (RET(V804L)): 100%
remaining binding at 1 µM (DLK): 78%
remaining binding at 1 µM (MLK3): 100%
remaining binding at 1 µM (MAST1): 93%
remaining binding at 1 µM (YANK2): 5.8%
remaining binding at 1 µM (FGFR4): 100%
